According to ChEMBL document CHEMBL6153137, “Design, Synthesis, and Biological Evaluation of Novel Orally Available Covalent CDK12/13 Dual Inhibitors for the Treatment of Tumors” (J Med Chem, 2025):
Active and inactive are the calls of the source. The rule behind the calls is not given here.

Assays:
[1] = AUC (0 to infinity) in Sprague-Dawley rat at 1 mg/kg, iv by LC-MS/MS analysis; type: ADME, organism-based; details: in vivo
[2] = Toxicity against female Sprague-Dawley rat assessed as effect on body weight at 7.5 to 15 mg/kg, po administered once daily via gavage for 28 days and measured twice a week; type: organism-based; details: in vivo, 672 h, dose 7.5-15 mg/kg, time 28 day
MV4-11 [3] = assay: Antiproliferative activity against human MV4-11 cells assessed as reduction in cell viability incubated for 7 days by CellTiter-Glo reagent based luminescence analysis; type: functional; details: MV4-11, 168 h
KARPAS-299 = assay: Antiproliferative activity against human KARPAS-299 cells assessed as reduction in cell viability incubated for 7 days by CellTiter-Glo reagent based luminescence analysis; type: functional; details: KARPAS-299, 168 h
[4] = Toxicity against male Sprague-Dawley rat assessed as effect on chlorine level in blood at 10 to 40 mg/kg, po administered once daily via gavage for 28 days and measured on day 29; type: organism-based; details: in vivo, 696 h, dose 10-40 mg/kg, time 29 day
[5] = Cmax in Sprague-Dawley rat at 150 mg/kg, po measured for 24 hrs by LC-MS/MS analysis; type: ADME, organism-based; details: in vivo
[6] = Toxicity against female Sprague-Dawley rat assessed as effect on blood urea nitrogen level at 7.5 to 30 mg/kg, po administered once daily via gavage for 28 days and measured on day 29; type: organism-based; details: in vivo, 696 h, dose 7.5-30 mg/kg, time 29 day
[7] = Toxicity against male Sprague-Dawley rat assessed as perianal contamination at 40 mg/kg, po administered once daily via gavage for 28 days; type: organism-based; details: in vivo, 672 h, time 28 day
MV4-11 [8] = assay: Antitumor activity against human MV4-11 cells xenografted in Balb/c nude mouse assessed as inhibition of tumor growth at 30 mg/kg, po administered once daily via gavage and measured on day 21; type: functional; details: MV4-11, 504 h, time 21 day, read-out: TGI
[9] = Ratio of drug level in tumor to plasma in Balb/c mouse xenografted with human SUM149PT cells at 60 mg/kg, po administered via gavage and measured after 2 hrs; type: ADME, organism-based
[10] = molecular target: Cyclin-dependent kinase 12/13 (Homo sapiens) (UniProt Q14004+Q9NYV4); assay: Inhibition of CDK12/13 in human SUM149PT cells assessed as reduction in ATM gene expression at 500 nM incubated for 8 to 24 hrs by qPCR analysis; type: cell-based; details: time lower 8.0 hrs, time upper […]
[11] = Cmax in female Sprague-Dawley rat at 15 mg/kg, po administered once daily via gavage for 28 days; type: ADME, organism-based; details: in vivo, time 28 day
[12] = molecular target: T1, Cyclin-dependent kinase 13/Cyclin-K (Homo sapiens, UniProt Q14004); assay: Inhibition of CDK13/Cyclin K (unknown origin) using pS7-CTD peptide and ATP as substrate incubated for 120 mins by ADP-Glo reagent based luminescence analysis; type: protein-complex assay
T1 sequence (Q14004 whole entry): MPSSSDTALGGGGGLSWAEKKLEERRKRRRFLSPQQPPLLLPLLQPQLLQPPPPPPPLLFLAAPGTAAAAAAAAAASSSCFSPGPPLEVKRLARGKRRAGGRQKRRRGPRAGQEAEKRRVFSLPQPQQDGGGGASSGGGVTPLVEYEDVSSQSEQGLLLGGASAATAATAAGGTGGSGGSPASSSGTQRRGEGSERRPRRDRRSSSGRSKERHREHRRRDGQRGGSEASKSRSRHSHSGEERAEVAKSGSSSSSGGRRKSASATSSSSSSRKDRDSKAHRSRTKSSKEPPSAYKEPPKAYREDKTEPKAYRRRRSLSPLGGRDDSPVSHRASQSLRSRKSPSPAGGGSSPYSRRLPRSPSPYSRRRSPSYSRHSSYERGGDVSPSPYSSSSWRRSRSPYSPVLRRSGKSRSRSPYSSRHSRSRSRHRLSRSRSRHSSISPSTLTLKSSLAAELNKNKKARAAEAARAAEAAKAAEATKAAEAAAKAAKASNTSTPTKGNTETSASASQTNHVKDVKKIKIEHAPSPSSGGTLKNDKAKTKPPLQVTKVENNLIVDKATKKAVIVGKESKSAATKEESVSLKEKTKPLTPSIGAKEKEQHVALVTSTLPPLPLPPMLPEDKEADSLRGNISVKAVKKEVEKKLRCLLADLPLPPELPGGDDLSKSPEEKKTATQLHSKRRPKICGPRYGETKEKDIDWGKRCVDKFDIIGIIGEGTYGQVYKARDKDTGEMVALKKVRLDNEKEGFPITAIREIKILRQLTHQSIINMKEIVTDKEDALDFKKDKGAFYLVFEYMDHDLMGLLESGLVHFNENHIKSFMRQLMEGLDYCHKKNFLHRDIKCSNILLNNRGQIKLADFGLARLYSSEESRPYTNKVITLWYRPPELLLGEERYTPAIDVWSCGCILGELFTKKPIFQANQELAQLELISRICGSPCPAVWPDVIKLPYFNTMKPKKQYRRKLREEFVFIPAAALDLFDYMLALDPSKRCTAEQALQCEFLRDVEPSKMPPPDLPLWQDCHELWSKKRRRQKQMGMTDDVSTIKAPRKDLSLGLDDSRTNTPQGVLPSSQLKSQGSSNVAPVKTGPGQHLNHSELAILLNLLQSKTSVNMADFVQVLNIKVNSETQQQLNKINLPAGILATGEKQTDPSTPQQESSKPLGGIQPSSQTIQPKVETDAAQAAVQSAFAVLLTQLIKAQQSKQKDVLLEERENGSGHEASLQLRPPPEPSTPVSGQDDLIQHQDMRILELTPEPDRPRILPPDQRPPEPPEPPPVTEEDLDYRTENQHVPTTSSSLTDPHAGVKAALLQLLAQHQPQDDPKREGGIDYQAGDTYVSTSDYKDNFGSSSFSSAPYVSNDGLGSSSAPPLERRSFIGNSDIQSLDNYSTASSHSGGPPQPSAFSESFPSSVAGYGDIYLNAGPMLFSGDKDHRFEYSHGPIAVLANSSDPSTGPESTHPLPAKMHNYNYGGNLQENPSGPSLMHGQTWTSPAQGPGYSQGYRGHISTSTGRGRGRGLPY
T1 sequence (O75909 whole entry, further chain): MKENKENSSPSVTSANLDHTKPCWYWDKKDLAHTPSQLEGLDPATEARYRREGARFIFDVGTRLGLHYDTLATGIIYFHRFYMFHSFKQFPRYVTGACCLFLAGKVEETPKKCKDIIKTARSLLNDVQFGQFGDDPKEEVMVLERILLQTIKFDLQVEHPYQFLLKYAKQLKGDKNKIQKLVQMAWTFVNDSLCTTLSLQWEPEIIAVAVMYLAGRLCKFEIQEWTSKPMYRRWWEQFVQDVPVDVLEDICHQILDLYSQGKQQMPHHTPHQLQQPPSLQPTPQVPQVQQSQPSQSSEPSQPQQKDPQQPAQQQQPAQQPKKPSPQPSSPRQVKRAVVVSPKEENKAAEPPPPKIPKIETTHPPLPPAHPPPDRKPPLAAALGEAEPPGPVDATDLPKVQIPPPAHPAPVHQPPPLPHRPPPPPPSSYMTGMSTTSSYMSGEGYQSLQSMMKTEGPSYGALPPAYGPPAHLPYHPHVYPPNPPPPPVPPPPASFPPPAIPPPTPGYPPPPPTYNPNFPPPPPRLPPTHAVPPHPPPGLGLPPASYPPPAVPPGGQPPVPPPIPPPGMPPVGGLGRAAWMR

[13] = Cmax in female Sprague-Dawley rat at 7.5 mg/kg, po administered once daily via gavage for 28 days; type: ADME, organism-based; details: in vivo, time 28 day
[14] = AUC(0 to t) in female Sprague-Dawley rat at 15 mg/kg, po administered once daily via gavage for 28 days; type: ADME, organism-based; details: in vivo, 672 h, time 28 day
[15] = Cmax in Balb/c mouse xenografted with human SUM149PT cells at 30 mg/kg, po administered once daily via gavage; type: ADME, organism-based; details: in vivo
[16] = Toxicity against male Sprague-Dawley rat assessed as effect on creatinine level in blood at 10 to 40 mg/kg, po administered once daily via gavage for 28 days and measured on day 29; type: organism-based; details: in vivo, 696 h, dose 10-40 mg/kg, time 29 day
[17] = Toxicity against female Sprague-Dawley rat assessed as effect on phosphorus level in blood at 7.5 to 30 mg/kg, po administered once daily via gavage for 28 days and measured on day 29; type: organism-based; details: in vivo, 696 h, dose 7.5-30 mg/kg, time 29 day
[18] = Toxicity against male Sprague-Dawley rat assessed as effect on hematocrit level at 10 to 40 mg/kg, po administered once daily via gavage for 28 days and measured on day 29; type: organism-based; details: in vivo, 696 h, dose 10-40 mg/kg, time 29 day
Cytochrome P450 2D6 = Cytochrome P450 2D6 (Homo sapiens, UniProt P10635); assay: Inhibition of CYP2D6 in human liver microsomes assessed as inhibition of dextromethorphan-O-demethylation incubated for 10 mins in presence of NADPH by LC-MS/MS analysis; type: ADME, Microsome
Chain of Cytochrome P450 2D6 (P10635 whole entry): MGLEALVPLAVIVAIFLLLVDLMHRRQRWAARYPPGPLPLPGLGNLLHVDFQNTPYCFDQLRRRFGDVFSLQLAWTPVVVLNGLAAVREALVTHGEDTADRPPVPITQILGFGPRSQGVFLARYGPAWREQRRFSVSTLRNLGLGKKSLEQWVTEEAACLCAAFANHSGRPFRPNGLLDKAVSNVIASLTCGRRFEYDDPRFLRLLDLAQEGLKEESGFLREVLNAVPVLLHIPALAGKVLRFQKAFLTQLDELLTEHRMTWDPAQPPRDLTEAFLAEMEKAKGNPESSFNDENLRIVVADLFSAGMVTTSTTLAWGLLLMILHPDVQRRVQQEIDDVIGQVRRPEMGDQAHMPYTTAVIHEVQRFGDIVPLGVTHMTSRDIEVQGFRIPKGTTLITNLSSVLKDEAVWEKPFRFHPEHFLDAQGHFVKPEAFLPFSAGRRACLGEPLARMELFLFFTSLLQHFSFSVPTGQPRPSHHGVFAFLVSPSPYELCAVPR

[19] = AUC (0 to infinity) in Sprague-Dawley rat at 15 mg/kg, po by LC-MS/MS analysis; type: ADME, organism-based; details: in vivo
[20] = Toxicity against male Sprague-Dawley rat assessed as effect on sodium level in blood at 10 to 40 mg/kg, po administered once daily via gavage for 28 days and measured on day 29; type: organism-based; details: in vivo, 696 h, dose 10-40 mg/kg, time 29 day
[21] = Toxicity against male Sprague-Dawley rat assessed as hypersalivation at 40 mg/kg, po administered once daily via gavage for 28 days; type: organism-based; details: in vivo, 672 h, time 28 day
[22] = Clearance in Sprague-Dawley rat at 1 mg/kg, iv measured for 24 hrs by LC-MS/MS analysis; type: ADME, organism-based; details: in vivo
[23] = Cmax in female Sprague-Dawley rat at 30 mg/kg, po administered via gavage and measured on day 1; type: ADME, organism-based; details: in vivo, time 1 day
[24] = molecular target: T1, Cyclin-dependent kinase 13/Cyclin-K; assay: Inhibition of human recombinant N-terminal GST-tagged CDK13/N-terminal FLAG and C-terminal His-tagged Cyclin K expressed in HEP Sf9 cells using ATP as substrate measured after 60 mins by ADP-Glo reagent based luminescence assay
[25] = Toxicity against female Sprague-Dawley rat assessed as effect on mean corpuscular hemoglobin at 7.5 to 30 mg/kg, po administered once daily via gavage for 28 days and measured on day 29; type: organism-based; details: in vivo, 696 h, dose 7.5-30 mg/kg, time 29 day
[26] = Permeability of the compound in human Caco-2 cells at 2 uM incubated for 2 hrs by LC-MS/MS analysis; type: ADME, cell-based; details: read-out: permeability
[27] = Toxicity against female Sprague-Dawley rat assessed as effect on mean corpuscular volume at 7.5 to 30 mg/kg, po administered once daily via gavage for 28 days and measured on day 29; type: organism-based; details: in vivo, 696 h, dose 7.5-30 mg/kg, time 29 day
[28] = Cmax in male Sprague-Dawley rat at 10 mg/kg, po administered once daily via gavage for 28 days; type: ADME, organism-based; details: in vivo, time 28 day
Mus musculus = assay: In vivo inhibition of CDK12/13 in Balb/c mouse xenografted with human SUM149PT cells assessed as reduction in FANCI gene expression at 15 to 30 mg/kg, po administered once daily via gavage and measured at 4 hrs post-last drug dosage by qPCR analysis; type: functional, organism-based; details: dose 15-30 mg/kg
[29] = molecular target: Cyclin-dependent kinase 7 (Homo sapiens) (UniProt P50613); assay: Inhibition of CDK7 in human SUM149PT cells assessed as reduction in level of phosphorylation of Ser5 on RNA Pol II CTD at 500 nM incubated for 12 hrs followed by drug wash-out and measured after 72 hrs by western blot analysis; type: cell-based
Chain of Cyclin-dependent kinase 7 (Homo sapiens) (P50613 whole entry): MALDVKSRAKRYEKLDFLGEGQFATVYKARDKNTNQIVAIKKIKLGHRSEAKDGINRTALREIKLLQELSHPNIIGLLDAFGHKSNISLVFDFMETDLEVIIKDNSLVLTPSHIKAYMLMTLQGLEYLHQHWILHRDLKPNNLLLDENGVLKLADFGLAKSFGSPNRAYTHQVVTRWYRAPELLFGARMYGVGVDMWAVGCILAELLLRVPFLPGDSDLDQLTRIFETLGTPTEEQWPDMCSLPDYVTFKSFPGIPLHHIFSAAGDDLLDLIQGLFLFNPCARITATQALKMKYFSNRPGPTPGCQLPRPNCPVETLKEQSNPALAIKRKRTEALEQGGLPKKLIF

DLD-1 = assay: Antiproliferative activity against human DLD-1 cells assessed as reduction in cell viability incubated for 7 days by CellTiter-Glo reagent based luminescence analysis; type: functional; details: DLD-1, 168 h
[30] = GSH reactivity assessed as half life to adduct formation at 1 uM by LC-MS/MS analysis; type: physicochemical

C=CC(=O)N1CCc2c(ncnc2N2CC[C@@H](Nc3ncc(Cl)c(OC)n3)C2)C1
AUC(0-inf) [1]: 270 ng·h/mL
Activity [2]: Non-toxic
IC50 (MV4-11 [3]): 84 nM
IC50 (KARPAS-299): 131 nM
Activity [4]: Non-toxic
Cmax [5]: 3760 ng/mL
Activity [6]: Non-toxic
Activity [7]: Toxic
inhibition in vivo at 30 mg/kg (MV4-11 [8]): 95%
Kp at 2 h [9]: 0.42
inhibition [10]: Active
Cmax [11]: 1800 ng/mL
IC50 [12]: 79.4 nM
Cmax [13]: 800 ng/mL
AUCt [14]: 3220 ng·h/mL
Cmax [15]: 1980 ng/mL
Activity [16]: Non-toxic
Activity [17]: Non-toxic
Activity [18]: Non-toxic
IC50 (Cytochrome P450 2D6): > 50000 nM
AUC(0-inf) [19]: 2280 ng·h/mL
Activity [20]: Non-toxic
Activity [21]: Toxic
clearance [22]: 62.4 mL/min/kg
Cmax [23]: 2200 ng/mL
IC50 [24]: 111 nM
Activity [25]: Non-toxic
Papp at 2 h, 2 µM [26]: 4.6 ×10⁻⁶ cm/s
Activity [27]: Non-toxic
Cmax [28]: 576 ng/mL
inhibition (Mus musculus): Active
inhibition [29]: inactive
IC50 (DLD-1): 135 nM
t1/2 [30]: 1.35 h
